{"source": "patent US4181731A", "about": "“Novel therapeutic application of 4-carbamoyl-5-hydroxyimidazole” (Sumitomo Chemical Company, Limited, priority 1978, dated 1980)", "key": {"[1]": {"test_system": "mice (ICR, male)", "assay": "Subacute toxicities against mice (oral, 21 days)", "type": "in vivo", "conditions": "100 mg/kg/day orally", "experimental": "Subacute toxicities of Compound A against mice (ICR, male, body weight approximately 25 g) were as follows. The said compound was orally administered for 21 days. The dosage level was 100 mg/kg/day."}, "[2]": {"assay": "Acute toxicity against mice", "conditions": "mouse, in vivo, mice (ICR, male, 22-25 g)", "from_the_text": "Acute toxicity of Compound A against mice (ICR, male, body weight 22-25 g) was as follows."}, "[3]": {"test_system": "adjuvant arthritis", "assay": "Inhibitory effects on the adjuvant arthritis of rats (antirheumatic activity)", "type": "in vivo", "conditions": "for Foot Volume: control 2.34 ml; for Inhibition Rate: foot volume", "experimental": "The antirheumatic activities on adjuvant arthritis were estimated according to the methods described in \"Arzneimittel-Forschung (Drug Res.)\", Vol. 22, p. 1959 (1972).\n*Successive administration was performed immediately after inoculation of […]"}, "[4]": {"test_system": "Masuji nephritis", "assay": "Antinephritic effects on Masuji nephritis", "type": "in vivo", "conditions": "for Urinary Protein: control 238.9; for Inhibition Ratio: urinary protein", "from_the_text": "The antinephritic activities were estimated according to the methods described in \"Arerugii\", Vol. 24, p. 472 (1975) (in Japanese).\n*Successive oral administration began for 2 days before the injection of […]"}}}
{"compound": "NC(=O)c1nc[nH]c1O", "note": "[Compound A, 4-carbamoyl-5-hydroxyimidazole]", "values": [{"measurement": "Autopsy", "setting": "[1]", "result": "No adverse effect"}, {"measurement": "Body weight change", "setting": "[1]", "result": "Normal"}, {"measurement": "Clinical signs", "setting": "[1]", "result": "No adverse effect except slight involution of the spleen"}, {"measurement": "Food consumption", "setting": "[1]", "result": "Normal"}, {"measurement": "Haematology, overall finding", "setting": "[1]", "result": "No adverse effect"}, {"measurement": "Relative organ weight, Heart (average)", "setting": "[1]", "result": 0.49, "unit": "%"}, {"measurement": "Relative organ weight, Kidney (average)", "setting": "[1]", "result": 1.50, "unit": "%"}, {"measurement": "Relative organ weight, Liver (average)", "setting": "[1]", "result": 6.24, "unit": "%"}, {"measurement": "Relative organ weight, Lung (average)", "setting": "[1]", "result": 0.81, "unit": "%"}, {"measurement": "Relative organ weight, Spleen (average)", "setting": "[1]", "result": 0.30, "unit": "%"}, {"measurement": "Relative organ weight, Testis (average)", "setting": "[1]", "result": 0.38, "unit": "%"}, {"measurement": "Relative organ weight, Thymus (average)", "setting": "[1]", "result": 0.20, "unit": "%"}, {"measurement": "Urinalysis, overall finding", "setting": "[1]", "result": "No adverse effect"}, {"measurement": "GOT (average)", "setting": "[1]; Haematology", "result": 54.4, "unit": "K.U."}, {"measurement": "Hematocrit value (average)", "setting": "[1]; Haematology", "result": 35, "unit": "%"}, {"measurement": "Hemoglobin (average)", "setting": "[1]; Haematology", "result": 15.1, "unit": "g/dL"}, {"measurement": "Red blood cells (average)", "setting": "[1]; Haematology", "result": "6.0 × 10^6 /mm^3"}, {"measurement": "White blood cells (average)", "setting": "[1]; Haematology", "result": "6.5 × 10^4 /mm^3"}, {"measurement": "Glucose (urinalysis)", "setting": "[1]; Urinalysis", "result": "Negative"}, {"measurement": "Occult blood (urinalysis)", "setting": "[1]; Urinalysis", "result": "Negative"}, {"measurement": "Protein (urinalysis)", "setting": "[1]; Urinalysis", "result": "30 to 100", "unit": "mg/dL"}, {"measurement": "pH (urinalysis)", "setting": "[1]; Urinalysis", "result": "6.0-6.5"}, {"measurement": "LD50", "setting": "[2]; ip", "result": "> 500", "unit": "mg/kg"}, {"measurement": "LD50", "setting": "[2]; iv", "result": "> 130", "unit": "mg/kg"}, {"measurement": "LD50", "setting": "[2]; po", "result": "> 2000", "unit": "mg/kg"}, {"measurement": "Foot Volume", "setting": "[3]; 5 mg/kg/day × 21, p.o.", "result": 1.28, "unit": "mL"}, {"measurement": "Foot Volume", "setting": "[3]; 10 mg/kg/day × 21, p.o.", "result": 0.88, "unit": "mL"}, {"measurement": "Foot Volume", "setting": "[3]; 25 mg/kg/day × 21, p.o.", "result": 0.44, "unit": "mL"}, {"measurement": "Inhibition Rate", "setting": "[3]; 5 mg/kg/day × 21, p.o.", "result": 45.3, "unit": "%"}, {"measurement": "Inhibition Rate", "setting": "[3]; 10 mg/kg/day × 21, p.o.", "result": 62.3, "unit": "%"}, {"measurement": "Inhibition Rate", "setting": "[3]; 25 mg/kg/day × 21, p.o.", "result": 81.2, "unit": "%"}, {"measurement": "Urinary Protein", "setting": "[4]; 5 mg/kg/day × 16, p.o.", "result": 147.6, "unit": "mg/24 hrs."}, {"measurement": "Urinary Protein", "setting": "[4]; 10 mg/kg/day × 16, p.o.", "result": 68.4, "unit": "mg/24 hrs."}, {"measurement": "Urinary Protein", "setting": "[4]; 25 mg/kg/day × 16, p.o.", "result": 28.4, "unit": "mg/24 hrs."}, {"measurement": "Inhibition Ratio", "setting": "[4]; 5 mg/kg/day × 16, p.o.", "result": 38.2, "unit": "%"}, {"measurement": "Inhibition Ratio", "setting": "[4]; 10 mg/kg/day × 16, p.o.", "result": 71.4, "unit": "%"}, {"measurement": "Inhibition Ratio", "setting": "[4]; 25 mg/kg/day × 16, p.o.", "result": 88.1, "unit": "%"}]}
